How the values were obtained:
Mus musculus = assay: Toxicity in mouse at 3 mg/kg, ip; format: organism-based; parameters: dose 3 mg/kg, route intraperitoneal; conditions: in vivo
Rattus norvegicus = assay: Toxicity in Wistar rat at 3 mg/kg; format: organism-based; parameters: dose 3 mg/kg; conditions: in vivo

Row | Structure (SMILES) | Activity (Mus musculus) | Activity (Rattus norvegicus)
1 | C=C1[C@@H]2CC[C@H]3[C@]4(C)C[C@H](O[C@@H]5O[C@H](CO)[C@@H](O)[C@H](O)[C@H]5OC(=O)CC(C)CC)CC(C(=O)O)(C(=O)O)[C@H]4CC[C@]3(C2)[C@H]1O (some centres undefined) | Toxic | Toxic
2 | C=C1[C@@H]2CC[C@H]3[C@]4(C)C[C@H](O[C@@H]5O[C@H](CO)[C@@H](O)[C@H](O)[C@H]5OC(=O)CC(C)C)CC(C(=O)O)(C(=O)O)[C@H]4CC[C@]3(C2)[C@H]1O | Toxic | Toxic

From ChEMBL document CHEMBL1150178, “Two toxic kaurene glycosides from the burrs of Xanthium pungens” (J Nat Prod, 1990)
